Data taken from patent publication US7659081B2, “Determination of AM-binding proteins and the association of adrenomedullin (AM) therewith” (The United States of America as represented by the …, priority 1999, dated 2010).
≈ marks a conversion by molar mass, not a printed value.

Legend:
[1] = system: E. coli cells (ATCC 35218); assay type: cell-based
Description: FIG. 9 illustrates the effect of factor H on AM activity. […] Values represent mean and standard deviation of four independent determinations. […] Results are expressed in inhibition units (10 units correspond to 1 mm of diameter in the inhibition halo). MIC values were estimated by performing a linear regression and determining the x-intercepts. […] Values represent mean and standard deviation of the mean of eight determinations.
Antimicrobial activity was measured using E. coli cells (ATCC 35218, Gaithersburg, Md.) and a radial diffusion assay as previously described (R. I. Lehrer et al., 1991, J. Immunol. Methods 137:167-173). Briefly, bacteria were incorporated into a thin underlay gel that contained 1% agarose, 2 mM HEPES pH 7.2, and 0.3 mg/ml of trypticase soy broth powder. After polymerization of the gel, small wells (10 μl capacity) were carved in the agar. Test substances were added and allowed to diffuse for 3 hr at 37° C. […] The diameters of the inhibition halos were measured to the nearest 0.1 mm and, after subtracting the diameter of the well, were expressed on inhibition units (10 units=1 mm). […]
For statistical calculations, MIC values were analyzed by the Student's t test, cAMP values were analyzed with a one-way analysis of variance (ANOVA) and the Tukey's test, and P<0.05 was considered significant.

[2] = system: pancreatic islets; experiment: Insulin secretion and cAMP in isolated pancreatic islets; assay type: cell-based, rat; conditions: islets with AM and/or factor H
Description: A representative experiment is shown. Values for each treatment represent the mean and standard deviation of three independent wells. […] All values were statistically different (p<0.05) from the negative controls (first bar).
Pancreatic islets were isolated from 12 rats as previously described (A. Martínez et al., 2000, Endocrinology 141:406-411). Briefly, the heart of each rat was perfused with Hank's balanced salt solution (Sigma) to remove blood from pancreatic vessels. A small canula was inserted into the common biliary duct while the coledoco was sealed. Twenty to twenty-five milliliters of 0.4 mg/ml collagenase XI (Sigma) in Hank's solution was pumped through the canula until the pancreas was fully inflated. The pancreas was removed and incubated at 37° C. for 20 min. Following this, 20 ml of ice-cold Hank's solution was added and the pancreas dissociated by vigorous vortexing. After several washes, the islets were collected and distributed into 24 well plates using a dissecting microscope, with approximately 70 islets per well.
Freshly isolated islets were incubated in RPMI-1640 (Life Technologies) containing 5.6 mM glucose for 45 min at 37° C. […] Insulin and cAMP were measured by radioimmunoassay with commercial kits (Amersham, Arlington Heights, Ill.), according to the manufacturer's directions. […]

[3] = system: insulin secretion; conditions: cited from earlier work
[4] = intravenous injection; cited from earlier work

MIC value [1]: 18.4 ± 1.3 µg/mL (≈ 3.05 µM)
Structure (SMILES): CC[C@H](C)[C@H](NC(=O)[C@H](CCC(N)=O)NC(=O)[C@H](Cc1c[nH]cn1)NC(=O)[C@H](C)NC(=O)[C@H](CC(C)C)NC(=O)[C@H](CCCCN)NC(=O)[C@H](CCC(N)=O)NC(=O)[C@@H](NC(=O)[C@@H](NC(=O)[C@@H]1CSSC[C@H](NC(=O)CNC(=O)[C@H](Cc2ccccc2)NC(=O)[C@H](CO)NC(=O)[C@H](CCCNC(=N)N)NC(=O)[C@H](CC(C)C)NC(=O)CNC(=O)[C@H](CCC(N)=O)NC(=O)[C@H](Cc2ccccc2)NC(=O)[C@H](CC(N)=O)NC(=O)[C@H](CC(N)=O)NC(=O)[C@H](CCSC)NC(=O)[C@H](CO)NC(=O)[C@H](CCC(N)=O)NC(=O)[C@H](CCCNC(=N)N)NC(=O)[C@@H](N)Cc2ccc(O)cc2)C(=O)N[C@@H](CCCNC(=N)N)C(=O)N[C@@H](Cc2ccccc2)C(=O)NCC(=O)N[C@@H]([C@@H](C)O)C(=O)N1)[C@@H](C)O)C(C)C)C(=O)N[C@@H](Cc1ccc(O)cc1)C(=O)N[C@@H](CCC(N)=O)C(=O)N[C@@H](Cc1ccccc1)C(=O)N[C@H](C(=O)N[C@@H](CC(=O)O)C(=O)N[C@@H](CCCCN)C(=O)N[C@@H](CC(=O)O)C(=O)N[C@@H](CCCCN)C(=O)N[C@@H](CC(=O)O)C(=O)N[C@@H](CC(N)=O)C(=O)N[C@H](C(=O)N[C@@H](C)C(=O)N1CCC[C@H]1C(=O)N[C@@H](CCCNC(=N)N)C(=O)N[C@@H](CO)C(=O)N[C@@H](CCCCN)C(=O)N[C@H](C(=O)N[C@@H](CO)C(=O)N1CCC[C@H]1C(=O)N[C@@H](CCC(N)=O)C(=O)NCC(=O)N[C@@H](Cc1ccc(O)cc1)C(N)=O)[C@@H](C)CC)C(C)C)[C@@H](C)O [AM, Adrenomedullin]
cAMP in islets [2]: concomitant elevations on cAMP
Insulin secretion ([2]; 20.6 mM glucose, 45 min): dose-dependent decreases in insulin secretion
Insulin secretion [3]: inhibits insulin secretion in a dose-dependent manner
Insulin and glucose in the bloodstream [4]: reduces the levels of insulin in the bloodstream with a concomitant increase in circulating glucose
